Key:
[1] = tested on: GFRα1-deficient MG-63 and U-2 OS cells; experiment: WST-1 cell viability of GFRα1-deficient (siRNA) osteosarcoma cells; format: cell-based, human; conditions: GFRα1 siRNA 48 h, then agent 24 h
Experimental: FIG. 6. Cell viability of GFRα1-deficient osteosarcoma cells after treatment of chemotherapeutic agents. MG-63 and U-2 OS cells were transfected with either control siRNA or GFRα1 siRNA for 48 h and then treated with different concentrations of doxorubicin, cisplatin, or methotrexate for 24 h. Cell viability was measured using the WST-1 assay. The values are represented as a mean±s.d.m. (n=3). ** denotes P<0.05 by t-test. (a) MG-63 cells. (b) U-2 OS cells.
Small interfering RNA (siRNA)-based Experiments. Human GFRα1 siRNA, Beclin 1 siRNA, HMGB1 siRNA, AMPK siRNA, c-Src siRNA, NFκB p50 siRNA, APE siRNA and Negative (control) siRNA were purchased from Santa Cruz Biotechnology. Cell lines were transiently transfected with siRNA duplexes using Lipofectamine® RNAiMAX (Life Technologies) according to manufacturer's instructions.
Cell viability assays. WST-1 cell viability assay reagent was purchased from Roche. Equal numbers of cells were seeded in triplicate wells in 48-well plates and maintained in growth medium containing 10% FBS). Cells were cultured with PBS, GDNF (50 ng/mL), GDNF (50 ng/ml)+cisplatin (20 μM), or cisplatin (20 μM) in the presence of serum for 24 hr. Cells were also preincubated with inhibitors (3-MA, PP1, Compound C, Baf and CQ) for 1 hr before stimulating with PBS, GDNF, GDNF+cisplatin, or cisplatin. WST-1 reagent was then treated to the cells at the indicated times and incubated for 2 hr at 37° C. Cell viability was determined by measuring the absorbance after adding WST-1. The spectrophotometric absorbance of the samples was measured using an Ultra Multifunctional Microplate Reader (Tecan, Durham, N.C.) at 450 nm. Experiments were done at least in triplicate using separate cultures.

[2] = tested on: GFRα1 expression in MG-63 and U-2 OS cells; experiment: Immunoblot of GFRα1 expression after chemotherapeutic agents; format: cell-based, human; conditions: doxorubicin 5 μM, cisplatin 20 μM, methotrexate 1 mM, 24 hr
Experimental: FIG. 1. Cisplatin induces GFRα1 expression in osteosarcoma cells. (a-c) Immunoblot analysis of osteosarcoma cell lysates with antibodies specific for GFRα1 and β-actin. (a) MG-63 and U-2 OS cells were treated with doxorubicin (5 μM), cisplatin (20 μM), or methotrexate (1 mM) for 24 hr. Immunoblot analysis of GFRα1 (left) and quantification of GFRα1 expression (right) after treatment of chemotherapeutic agents. (b) MG-63 and U-2 OS cells were treated with different concentrations of cisplatin for 24 hr. (c) MG-63 and U-2 OS cells were treated with cisplatin (20 μM) and collected at the indicated time. (d and e) Quantitative real-time PCR of GFRα1 mRNA expression after cisplatin treatment. Representative images (top) and quantitative analysis (bottom) of GFRα1 mRNA expression. The values are presented as a mean±s.d.m (n=3). ** denotes p<0.05 by t-test. (d) MG-63 and U-2 OS cells were treated with different concentrations of cisplatin for 24 hr. (e) MG-63 and U-2 OS cells were treated with cisplatin (20 μM) and collected at the indicated time.
Immunoblotting. Cells were washed with PBS and lysed in RIPA Buffer (Pierce, Rockford, Ill.). The protein content was determined using a dye-binding microassay (Bio-Rad, Hercules, Calif.), and 10-50 μg protein per lane was electrophoresed on 4-12% SDS polyacrylamide gels. Proteins were blotted onto Hybond ECL membranes (Amersham Pharmacia Biotech, Piscataway, N.J.). Two protein ladders were used for molecular weight determination (GenDEPOT, Barker, Tex.). The blotted proteins were detected using an enhanced chemiluminescence detection system (iNtRON, Seoul, Korea). Data were quantified and analyzed with Image-J software.

With N.N.[Cl][Pt][Cl] [cisplatin, Cis-Diamineplatinum(II) dichloride] the “cell proliferation of GFRα1-deficient cells compared to control cells” value [1] was “significantly reduced” and the “level of GFRα1 expression” value [2] was “significantly increased”.

Reference: patent US20180171411A1, “GFRalpha1 AS A BIOMARKER FOR CISPLATIN-INDUCED CHEMORESISTANCE AND METASTASIS” (THE BOARD OF REGENTS OF THE UNIVERSITY OF TEXAS SYSTEM, priority 2015, published 2018)
